Test [1] concerns the target XIAP (Homo sapiens, UniProt P98170). Kind of test: fluorescence polarization competition with AVPFAQK. It counts as binding. Background: In fluorescence polarisation assays a small probe gives low polarisation when free and higher when bound to something large.
Test [2] has as its target X-linked inhibitor of apoptosis protein (XIAP) BIR3 domain. Kind of test: fluorescence polarisation.

XIAP, sequence (P98170 241-356 limits assumed): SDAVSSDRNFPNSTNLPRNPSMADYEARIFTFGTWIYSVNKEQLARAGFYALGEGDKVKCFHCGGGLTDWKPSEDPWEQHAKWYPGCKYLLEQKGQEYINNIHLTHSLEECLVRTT

As usually defined, the IC50 is the concentration that inhibits the measured activity by half. Read a high IC50 as weaker potency. As to `C[C@H](N)C(=O)N[C@H]1CNC(=O)C[C@H]2CC[C@@H](C(=O)NC(c3ccccc3)c3ccccc3)N2C1=O` [ZJ-1, (5 S ,8 S ,10aR)‐5‐((S)‐2‐aminopropanamido)‐N‐benzhydryl‐2,6‐dioxodecahydropyrrolo[1,2‐a][1,5] diazocine‐8‐carboxamide], the IC50 in test [1] stood at 210 nM.
The molecule AVPI [AVPI, N-terminal tetrapeptide binding motif of Smac/DIABLO (Ala-Val-Pro-Ile)] had a half-maximal inhibitory concentration (IC50) in test [2] of 1150 nM.

Source of the values: PMC6331714 (ChemistryOpen, 2019).
